Laboratory results as given in PubChem BioAssay (NCI).
“And” between values parts separate entries of the source, which are not always exact repeats. Equal values may be shown once.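 Cells were grown in 96-well plates and exposed to each compound for 48 hours at five concentrations; endpoints were interpolated linearly between bracketing concentrations, or set to the highest concentration if not reached. GI50 is the concentration that inhibits growth by half. Definition used: TGI = concentration required for complete inhibition of growth.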

Experiments:
Assay in all cases: inhibition of tumour cell growth, NCI panel, 48 h
A549 NSCLC = system: A549 NSCLC
EKVX NSCLC = system: EKVX NSCLC
HS 578T breast = system: HS 578T breast
HT29 colon = system: HT29 colon
LOX IMVI melanoma = system: LOX IMVI melanoma
MDA-MB-231 breast = system: MDA-MB-231 breast
NCI-H23 lung = system: NCI-H23 lung
TK-10 renal = system: TK-10 renal
U251 CNS = system: U251 CNS
SW-620 colon = system: SW-620 colon

| Compound | GI50 (A549 NSCLC) [µM] | TGI (A549 NSCLC) | GI50 (EKVX NSCLC) | TGI (EKVX NSCLC) | TGI (HS 578T breast) [µM] | GI50 (HT29 colon) [µM] | TGI (HT29 colon) | GI50 (LOX IMVI melanoma) | GI50 (MDA-MB-231 breast) | TGI (MDA-MB-231 breast) | TGI (NCI-H23 lung) [µM] | GI50 (TK-10 renal) | TGI (TK-10 renal) | TGI (U251 CNS) [µM] | GI50 (HS 578T breast) [µM] | TGI (LOX IMVI melanoma) [µM] | GI50 (NCI-H23 lung) [µM] | GI50 (SW-620 colon) [µM] | TGI (SW-620 colon) [µM] | GI50 (U251 CNS) [µM] |
| --- | --- | --- | --- | --- | --- | --- | --- | --- | --- | --- | --- | --- | --- | --- | --- | --- | --- | --- | --- | --- |
| CNCCN=c1ccc2c3c1c(O)c1c(O)ccc(=O)c1c3[nH]n2CCNCCO | 0.027 | 4.65 µM and 4.57 µM | 1.84 µM and 0.889 µM | 10.5 µM and 3.5 µM | 1.41 | 0.587 | 3.71 µM and 9.04 µM | 0.0949 µM and 0.395 µM | 0.97 µM and 0.504 µM | 5.45 µM and 9.63 µM | 2.75 | 1.14 µM and 5.32 µM | 7.54 µM and 18.6 µM | 0.287 |  |  |  |  |  |  |
| CCN(Cc1c(Cl)cccc1Cl)c1ccc(CO)c(Cl)c1 | 3.35 | 20.6 µM |  |  | 37.9 | 2.43 | 15.3 µM | 16.9 µM | 13 µM | 26.2 µM | 26.2 | < 0.0238 µM | 0.0592 µM | 15.3 | 15.8 | 32.6 | 10.8 | 0.549 | 17 | 0.372 |
| O=C(CCc1ccc(O)cc1)N/N=C/c1cc(Br)ccc1O | 4.03 | > 100 µM |  |  | > 100 | 23.7 | 99.4 µM | 2.07 µM | 4.45 µM | 53.6 µM | > 100 | 7.35 µM | > 100 µM | > 100 | 10.1 | 16.8 | 7.42 | 3.83 | > 100 | 3.2 |
| Nc1c(C(=O)Nc2cccc(Cl)c2Cl)sc2nc3c(cc12)C(=O)CCC3 | 0.866 | > 100 µM |  |  | > 100 | > 100 | > 100 µM | > 100 µM | > 100 µM | > 100 µM |  | > 100 µM | > 100 µM | > 100 | > 100 | > 100 |  | 61.2 | > 100 | > 100 |
| O=C(CCCCC(=O)N/N=C\c1ccccc1O)N/N=C\c1ccccc1O |  |  | 7.75 µM | > 100 µM | > 100 | > 100 | > 100 µM | 2.3 µM | 1.9 µM | 57.5 µM |  | 6.4 µM | > 100 µM | > 100 | 15.2 | > 100 |  |  |  | 3.09 |
| CC(=O)[O-].O=C([CH-]C(=O)c1ccccc1)c1ccccc1.O=C([CH-]C(=O)c1ccccc1)c1ccccc1.[Sm+3] | 6.11 | 29.5 µM | 2.11 µM | 16.6 µM |  | 6.59 | 19 µM | 7.01 µM |  |  | 15.5 | 6.41 µM | 48.7 µM | 35.3 |  | 21.7 | 3.1 | 2.71 | 23.5 | 5.93 |
| Cn1cccc1/C=C/c1cc(Br)c(/C=C/c2cccn2C)cc1Br |  | 39.1 µM |  | 37.2 µM |  |  | 41.5 µM |  |  |  |  |  | 45.3 µM | 28.6 |  | 56.4 |  |  | 56.3 |  |
| Cc1ccc(C(=O)CC2=Nc3nnc(CCCCCCCc4nnc5n4C(=O)C(CC(=O)c4ccc(C)cc4)=N5)n3C2=O)cc1 |  | > 100 µM |  | > 100 µM |  |  | > 100 µM |  |  |  | > 100 |  | > 100 µM | > 100 |  | > 100 |  |  | > 100 |  |
| CC1(C)CC(N(C(=O)/C=C/c2ccc([N+](=O)[O-])o2)C2CCCCC2)CC(C)(C)N1 |  | 29.7 µM |  | 27 µM |  |  | 15.4 µM |  |  |  | 21.3 |  | 35.8 µM | 18.1 |  | 25.4 |  |  | 6.01 |  |
| CC(C)=CC(=O)Cc1nc2ccc([N+](=O)[O-])cc2[nH]c1=O |  | > 100 µM |  | > 100 µM |  |  | > 100 µM |  |  |  | > 100 |  | > 100 µM |  |  | > 100 |  |  | > 100 |  |
| COc1ccc2ccc3oc([N+](=O)[O-])cc3c2c1 | 0.197 | 0.543 µM |  |  | 1.44 | 0.202 | 1.89 µM | 0.0557 µM | 0.208 µM | 0.723 µM | 0.572 | 0.56 µM | 6.52 µM | 5.37 | 0.297 | 0.355 | 0.198 | 0.236 | 2.14 | 0.277 |
| NC(=S)NN=C1CSSC1 | 2.26 | 12.1 µM |  |  | 40 | 2.31 | 8 µM |  | 1.77 µM | 9.86 µM | 35.5 | 2.73 µM | 7.62 µM | 23.1 | 3.49 |  | 3.78 | 8.06 | > 100 | 3.66 |
| COC(=O)c1nn(C(=N)c2ccc(Cl)cc2)c2c1CCC2 |  | > 100 µM |  |  |  |  | > 100 µM |  |  |  | > 100 |  | > 100 µM | > 100 |  | > 100 |  |  | > 100 |  |
| Brc1cc2c(cc1Br)CN(c1ccccc1)C2 |  | > 100 µM |  | > 100 µM |  |  | > 100 µM |  |  |  | > 100 |  | > 100 µM | > 100 |  | > 100 |  |  | > 100 |  |
| O=NN(CCCl)C(=O)NC1CCC(CC2CCC(NC(=O)N(CCCl)N=O)CC2)CC1 (centres undefined) |  | > 100 µM |  | > 100 µM |  |  | > 100 µM |  |  |  | 99.6 |  | > 100 µM | 46.2 |  | 26.4 |  |  | > 51.3 |  |
| O=C(O)c1cc2ccccc2c2c1C(=O)c1ccccc1-2 |  | > 100 µM |  |  | > 100 |  | > 100 µM |  |  | > 100 µM | > 100 |  | > 100 µM | > 100 |  | > 100 |  |  | > 100 |  |
| COc1cc2c3c(n(C)c(=O)c2cc1OC)-c1cc2c(cc1/C3=C\CCNCCCN)OCO2 | 4.53 | > 100 µM | 3.83 µM | 18 µM | 9.52 | 1.86 | > 100 µM |  | 0.58 µM | 3.05 µM | 12.4 | 5.29 µM | 22.4 µM | 3.44 | 2.84 |  | 2.67 |  |  | 0.47 |
| CN(C)C(=O)Oc1c(-c2ccccc2)c(=O)n2c3ccccc3n3c(=O)n(C)c(=O)c1c23 |  | > 100 µM |  | > 100 µM |  |  | > 100 µM |  |  |  | > 100 |  | > 100 µM | > 100 |  | > 100 |  |  | > 100 |  |
| C[C@]12CCC(=O)C=C1CC[C@@H]1C2CC[C@]2(C)c3nn(-c4ccccc4)nc3CC12 (some centres undefined) |  | > 100 µM |  | > 100 µM |  |  | > 100 µM |  |  |  | > 100 |  | > 100 µM | > 100 |  | > 100 |  |  | > 100 |  |
